Laboratory results published in patent publication US11806393B2, “Flavivirus peptide sequences, epitopes, and methods and uses thereof” (priority 2017, dated 2023).

What was measured:
Assay type in all cases: cell-based, mouse
CD8+ T cells [1] = experiment: IFNγ ELISPOT, DENV2 S221-infected Ifnar-/- HLA-B*0702 transgenic mice; settings: HLA-B*0702 mice, 7 days after 2×10^4 FFU DENV2 S221
Experimental: (§1) Two ZIKV strains, MR766 (Uganda, 1947) and FSS13025 (Cambodia, 2010), were obtained from the World Reference Center for Emerging Viruses and Arboviruses (WRCEVA). The mouse-adapted DENV2 strain S221 is a triple-plaque purified clone derived from DENV2 D2S1038. Both ZIKV and DENV2 were amplified in C6/36 mosquito cells, and viral titers were measured using baby hamster kidney (BHK)-21 cell-based focus forming assay (FFA). For epitope screening, 5-week old mice (female or male) were infected retro-orbitally (R.O.) with either 1×102 FFU of ZIKV FSS13025 or ZIKV MR766, or 2×10^4 FFU of DENV2 S221 in 200 μl 10% FBS/PBS. Seven days after infection, CD8^+ T cells were isolated from splenocytes and used for ELISPOT assay, while the splenocytes were directly used for ICS assay. Additionally, 5-week old mice were inoculated I.P. with 2×10^3 FFU of DENV2 S221 for 4 weeks.
(§2) CD8^+ T cells were isolated from splenocytes using magnetic bead positive selection (Miltenyi Biotec, Germany) 7 days after virus infection. 2×10^5 CD8^+ T cells were stimulated with 1×10^5 LPS-blasts loaded with 10 μg of individual peptide in 96-well flat-bottom plates (IMMOBILON™-P; Millipore, Bedford, Mass.) that were coated with anti-IFNγ mAb (clone AN18; Mabtech, Stockholm, Sweden) in triplicate. Concanavalin A (ConA) was used as positive control. After 20 hours of incubation, biotinylated anti-mouse IFNγ mAb (R4-6A2; Mabtech), followed by ABC peroxidase (Vector Laboratories, Burlingame, Calif., USA) and then 3-amino-9-ethylcarbazole (Sigma-Aldrich, St. Louis, Mo., USA) were added into the wells. […] A peptide inducing a magnitude of >500 SFCs/10^6 CD8^+ T cells was considered as an immunodominant peptide.
The following results are with respect to FIG. 14A and FIG. 14B, where Ifnar^−/− HLA-B*0702 transgenic mice were infected R.O. with 2×10^4 FFU of DENV2 strain S221 for 7 days. CD8^+ T cells isolated from splenocytes were stimulated with each of the 37 ZIKV epitopes identified via IFNγELISPOT to perform (FIG. 14A) IFNγELISPOT and (FIG. 14B) ICS assay. Data represent the average of two independent IFNγELISPOT experiments and two independent ICS experiments (n=7 mice) and are expressed as mean±SEM. Dotted line corresponds to the cutoff value. *, P<0.05.

CD8+ T cells [2] = experiment: IFNγ ELISPOT, ZIKV-infected Ifnar-/- HLA-B*0702 transgenic mice; settings: HLA-B*0702 mice; for SFC/10^6 CD8+ T cells, MR766: 7 days after 1×10^2 FFU ZIKV MR766
Experimental: as §1, §2
Two independent experiments performed in triplicate were averaged and the error bars represent the SEM. The data are expressed as the mean number of spot forming cells (SFC) per 10^6 CD8^+ T cells. The criteria for positivity were net SFC per 10^6 cells of >20, and a stimulation index of >2.0 when compared with the negative control. Dotted lines represent the cutoff value. * Indicates a positive response. […] ConA denotes Concanavalin A.

CD3+CD8+ T cells = experiment: IFNγ ICS, ZIKV-infected Ifnar-/- HLA-B*0702 transgenic mice; settings: for % IFNγ+ CD8+ T cells, MR766: 7 days after ZIKV MR766, ICS
Experimental: as §1
Spleens were harvested from virus-infected, mock-immunized, or peptide-immunized mice. 1×10^6 splenocytes were plated in each well of 96-well U-bottom plates and stimulated with individual peptide (10 μg crude peptide or 1 μg pure peptide per well) for 6 hours. Five hours before the end of incubation, Brefeldin A (GolgiPlug; BD Biosciences) and PE-conjugated anti CD107a mAb (clone 1D4B, eBioscience) were added to the cells. Splenocytes stimulated with PMA-ionomycin were used as the positive control, while cells without any stimulation were the negative control. […] Samples were run using an LSR™ II (BD Biosciences) and analyzed using FLOWJO™ software X 10.0.7 (Tree Star, Ashland, Oreg.).
Data represent the average of two independent experiments and are expressed as mean±SEM. *, P<0.05; **, P<0.01; Two-tailed Mann-Whitney test. P/I denotes PMA/ionomycin.

Row | Sequence | SFC/10^6 CD8+ T cells, S221 (CD8+ T cells [1]) | SFC/10^6 CD8+ T cells, MR766 (CD8+ T cells [2]) | % IFNγ+ CD8+ T cells, MR766 (CD3+CD8+ T cells; HLA-B*0702 mice) | % IFNγ+ CD8+ T cells, FSS13025 (CD3+CD8+ T cells; HLA-B*0702 mice, 7 days after ZIKV FSS13025, ICS) | simultaneous IFNγ and TNFα secretion by peptide-stimulated CD8+ T cells (CD3+CD8+ T cells; mice infected with either ZIKV FSS13025 or ZIKV MR766) | SFC/10^6 CD8+ T cells, FSS13025 (CD8+ T cells [2]; 7 days after 1×10^2 FFU ZIKV FSS13025) | immunodominance in IFNγ ELISPOT (CD8+ T cells [2]; immunodominant: >500 SFCs/10^6 CD8+ T cells, shared by both ZIKV strains)
1 | APTQGSASSL [FSS/MR-NS561-70] | 47 SFC/10^6 CD8+ T cells | 98 SFC/10^6 CD8+ T cells |  |  |  |  | 
2 | RVCSDHAAL [FSS/MR-NS3581-589] | 44 SFC/10^6 CD8+ T cells | 411 SFC/10^6 CD8+ T cells | (0.31%) |  |  |  | 
3 | SPNKYVVNSSTA [FSS/MR-NS4B210-220] | 49 SFC/10^6 CD8+ T cells | 195 SFC/10^6 CD8+ T cells |  |  |  |  | 
4 | TPRESMLLAL [FSS/MR-NS2A89-99] | 55 SFC/10^6 CD8+ T cells | 823 SFC/10^6 CD8+ T cells | (0.95%) | (0.56%) | simultaneously secreted both IFNγ and TNFα | 807 SFC/10^6 CD8+ T cells | immunodominant
